Counter-ions that a name gives are not always drawn. Like-named read-outs stand apart in the source and are kept apart here.
Tests used:
scn1Lab mutants [1] = test: Locomotion tracking assay of seizure behavior (96-well format); conditions: for 5HT library first-pass locomotion screen: 250 μM, 6 fish per drug, positive hit = reduction in mean swim velocity ≥38%; for inhibition of spontaneous seizure behavior, initial library screen: 667 μM; for inhibition of spontaneous seizure behavior, initial library screen / effect on locomotor seizure behavior / convulsive/seizure behavior with antihistamines: 5 dpf; for inhibition of spontaneous seizure behavior, initial library screen / effect on locomotor seizure behavior: 6-12 fish; for swim activity / seizure behavior, third evaluation: 100 μM, 10 fish per trial; for seizure-induced swim activity and mean velocity, re-test on separate clutch: 667, 67 and 6.7 μM; for effect on locomotor seizure behavior: 1 mM; for convulsive/seizure behavior with antihistamines: shelf screen at 0.1-1 mM
scn1Lab mutants [2] = assay type: in vivo, zebrafish; conditions: for forebrain electrographic seizure activity in the same mutants after the locomotion assay: 100 μM, mutant embedded in agar; for fish in which epileptiform activity became more frequent following exposure: 1 mM
wild-type larvae = test: DMSO toxicity in wild-type larvae; conditions: dilutions between 0.01 and 100%; n=12 fish per concentration
[3] = 1 mM bath applied, agar-embedded mutants 5-6 dpf, seven fish per drug, vs baseline
[4] = 1 mM bath applied, 5-6 dpf, seven fish per drug, vs baseline

COc1ccccc1N1CCN(CCCNc2cc(=O)n(C)c(=O)n2C)CC1 [urapidil]
5HT library first-pass locomotion screen (scn1Lab mutants [1]): positive hits

NCC(O)CC(=O)O (centres unmarked) [aminohydroxybutyric acid]
inhibition of spontaneous seizure behavior, initial library screen (scn1Lab mutants [1]): ineffective

Cc1ccc(C(=O)C(C)CN2CCCCC2)cc1 (centres unmarked) [tolperisone]
swim activity / seizure behavior, third evaluation (scn1Lab mutants [1]): reduced swim activity
seizure-induced swim activity and mean velocity, re-test on separate clutch (scn1Lab mutants [1]): effective in reducing seizure-induced swim activity and mean velocity
forebrain electrographic seizure activity in the same mutants after the locomotion assay (scn1Lab mutants [2]): electrographic seizure events were still observed

CC[C@@H](C(N)=O)N1CCCC1=O [levetiracetam]
effect on locomotor seizure behavior (scn1Lab mutants [1]): had no effect

C[C@H]1CNCCc2ccc(Cl)cc21 [lorcaserin]
5HT library first-pass locomotion screen (scn1Lab mutants [1]): positive hits

CN(C)CCc1c[nH]c2ccc(C[C@H]3COC(=O)N3)cc12 [zolmitriptan]
5HT library first-pass locomotion screen (scn1Lab mutants [1]): positive hits

C=CC(N)CCC(=O)O (centres unmarked) [vigabatrin]
Epileptiform event frequency (burst frequency; interictal- and ictal-like discharges) (scn1Lab mutants [2]; [3]): increased burst frequency
fish in which epileptiform activity became more frequent following exposure (scn1Lab mutants [2]; seven fish per drug): 6 of 7

CCC1(C)CC(=O)NC1=O (centres unmarked) [ethosuximide]
effect on locomotor seizure behavior (scn1Lab mutants [1]): increased seizure behavior
fish in which epileptiform activity became more frequent following exposure (scn1Lab mutants [2]; seven fish per drug): 4 of 7

COc1ccccc1N1CCN(CCN2C(=O)CC3(CCCC3)CC2=O)CC1 [BMY 7378, 8-(2-[4-(2-methoxyphenyl)-1-piperazinyl]ethyl)-8-azaspiro[4.5]decane-7,9-dione]
5HT library first-pass locomotion screen (scn1Lab mutants [1]): positive hits

CNCC[C@@H](Oc1ccccc1C)c1ccccc1 [atomoxetine]
5HT library first-pass locomotion screen (scn1Lab mutants [1]): positive hits

O=C(CCCl)NCc1ccccc1 [beclamide]
inhibition of spontaneous seizure behavior, initial library screen (scn1Lab mutants [1]): ineffective

[Br-].[K+] [potassium bromide]
effect on locomotor seizure behavior (scn1Lab mutants [1]): effectively inhibited seizure behavior
fractional time spent seizing (scn1Lab mutants [2]; [4]): reduced
Epileptiform event frequency (burst frequency; interictal- and ictal-like discharges) (scn1Lab mutants [2]; [3]): reduced

CNS(=O)(=O)Cc1ccc2[nH]cc(CCN(C)C)c2c1 [sumatriptan]
5HT library first-pass locomotion screen (scn1Lab mutants [1]): positive hits

O=c1n(CCCN2CCN(c3cccc(Cl)c3)CC2)nc2ccccn12 [trazodone]
5HT library first-pass locomotion screen (scn1Lab mutants [1]): positive hits
toxicity in the locomotion assay (scn1Lab mutants [1]; 750 μM): toxic
inhibition of spontaneous seizure behavior, concentration-response re-test (scn1Lab mutants [1]; concentrations between 100 and 750 μM, 30 or 90 min exposure, threshold ≥40%): robust inhibition of spontaneous seizure behavior
epileptic seizure events in sample EEG traces (scn1Lab mutants [2]; FIG. 12B): suppression of epileptic seizure events
EEG activity (scn1Lab mutants [2]; concentrations between 250 and 500 μM, n=15): effectively suppressed EEG activity

CN1CCC(=C2c3ccccc3Sc3ccccc32)CC1 [pimethixene maleate]
convulsive/seizure behavior with antihistamines (scn1Lab mutants [1]): failed to suppress convulsive behavior

CN1C(=O)CN=C(c2ccccc2)c2cc(Cl)ccc21 [diazepam]
effect on locomotor seizure behavior (scn1Lab mutants [1]): effectively inhibited seizure behavior
Epileptiform event frequency (burst frequency; interictal- and ictal-like discharges) (scn1Lab mutants [2]; zebrafish, in vivo): reduced
fractional time spent seizing (scn1Lab mutants [2]; zebrafish, in vivo): reduced

C[S+](C)[O-] [DMSO]
lethal DMSO concentration (wild-type larvae): > 25%

CCNC1(c2cccs2)CCCCC1=O (centres unmarked) [tiletamine]
inhibition of spontaneous seizure behavior, initial library screen (scn1Lab mutants [1]): ineffective

O=C1CC2(CCCC2)CC(=O)N1CCCCN1CCN(c2ncccn2)CC1 [buspirone]
5HT library first-pass locomotion screen (scn1Lab mutants [1]): positive hits

CN1CCc2c(c3ccccc3n2Cc2ccccc2)C1.CN1CCc2c(c3ccccc3n2Cc2ccccc2)C1.O=S(=O)(O)c1cccc2c(S(=O)(=O)O)cccc12 [mebhydrolin napthalenesulfonate]
convulsive/seizure behavior with antihistamines (scn1Lab mutants [1]): failed to suppress convulsive behavior

COc1ccc(C(CN(C)C)C2(O)CCCCC2)cc1 (centres unmarked) [venlafaxine]
5HT library first-pass locomotion screen (scn1Lab mutants [1]): positive hits

O=C1Cc2cc(CCN3CCN(c4nsc5ccccc45)CC3)c(Cl)cc2N1 [ziprasidone]
5HT library first-pass locomotion screen (scn1Lab mutants [1]): positive hits

CC(=O)Nc1nnc(S(N)(=O)=O)s1 [Acetazolamide]
effect on locomotor seizure behavior (scn1Lab mutants [1]): increased seizure behavior

Nc1nnc(-c2cccc(Cl)c2Cl)c(N)n1 [lamotrigine]
effect on locomotor seizure behavior (scn1Lab mutants [1]): had no effect

C#CCN(C)CCCOc1ccc(Cl)cc1Cl [Clorgiline]
swim activity / seizure behavior, third evaluation (scn1Lab mutants [1]): reduced swim activity
seizure-induced swim activity and mean velocity, re-test on separate clutch (scn1Lab mutants [1]): effective in reducing seizure-induced swim activity and mean velocity
forebrain electrographic seizure activity in the same mutants after the locomotion assay (scn1Lab mutants [2]): electrographic seizure events were still observed

CN1CCC(c2c[nH]c3ccc(O)cc23)CC1 [BRL-54443, 3-(1-methylpiperidin-4-yl)-1H-indol-5-ol]
5HT library first-pass locomotion screen (scn1Lab mutants [1]): positive hits

CNS(=O)(=O)CCc1ccc2[nH]cc(C3CCN(C)CC3)c2c1 [naratriptap]
5HT library first-pass locomotion screen (scn1Lab mutants [1]): positive hits

CC(=O)[C@H]1CC[C@H]2[C@@H]3CC[C@H]4C[C@](C)(O)CC[C@]4(C)[C@H]3CC[C@]12C [ganaxolone]
effect on locomotor seizure behavior (scn1Lab mutants [1]): effective

CN(C)CCc1c[nH]c2ccc(Cn3cncn3)cc12 [rizatriptan]
5HT library first-pass locomotion screen (scn1Lab mutants [1]): positive hits

CC(C)CCCC(C)NC(C)C (centres unmarked) [iproheptine]
convulsive/seizure behavior with antihistamines (scn1Lab mutants [1]): failed to suppress convulsive behavior

CC(C)(C)C(O)/C=C/c1ccc2c(c1)OCO2 (centres unmarked) [stiripentol]
effect on locomotor seizure behavior (scn1Lab mutants [1]): effectively inhibited seizure behavior
fractional time spent seizing (scn1Lab mutants [2]; [4]): reduced
Epileptiform event frequency (burst frequency; interictal- and ictal-like discharges) (scn1Lab mutants [2]; [3]): reduced

NC(=O)N1c2ccccc2C=Cc2ccccc21 [carbamazepine]
Epileptiform event frequency (burst frequency; interictal- and ictal-like discharges) (scn1Lab mutants [2]; [3]): increased burst frequency
fish in which epileptiform activity became more frequent following exposure (scn1Lab mutants [2]; seven fish per drug): 2 of 7

C[C@]12N[C@H](Cc3ccccc31)c1ccccc12 [MK-801]
epileptic seizure events in sample EEG traces (scn1Lab mutants [2]; zebrafish, in vivo): no suppression of epileptic events

Source: patent publication US10874643B2 (priority 2015, dated 2020)
